Source: patent US20080161232A1, “C5a Receptor Antagonist” (JERINI AG, priority 2005, published 2008)
Positions of bridges follow the written chain, without caps; N, C: chain ends. Non-standard residues stand in square brackets, D forms with d. Residues, ends and D or L forms follow the SMILES beside them. Phe(3-Cl) = N[C@@H](Cc1cccc(Cl)c1)C(=O)O; Phe(4-NH2) = Nc1ccc(C[C@H](N)C(=O)O)cc1; Phe(4-F) = N[C@@H](Cc1ccc(F)cc1)C(=O)O; Bta = N[C@@H](Cc1csc2ccccc12)C(=O)O; cisHyp = O=C(O)[C@@H]1C[C@H](O)CN1; Hyp = O=C(O)[C@@H]1C[C@@H](O)CN1; PhLac = O=C(O)[C@@H](O)Cc1ccccc1; d(hLeu) = CC(C)CC[C@@H](N)C(=O)O; Cha = N[C@@H](CC1CCCCC1)C(=O)O; dCha = N[C@H](CC1CCCCC1)C(=O)O; Agb = N=C(N)NCC[C@H](N)C(=O)O; Phg = N[C@H](C(=O)O)c1ccccc1; Nle = CCCC[C@H](N)C(=O)O; Orn = NCCC[C@H](N)C(=O)O; Aze = O=C(O)[C@@H]1CCN1; βAla = NCCC(=O)O

Molecular target: T1, human C5aR(CD88) (Homo sapiens, UniProt P21730)
T1 construct: expressed in transfected cells; host or cells: rat basophilic leukemia cells (RBL)
T1 sequence (P21730 1-350): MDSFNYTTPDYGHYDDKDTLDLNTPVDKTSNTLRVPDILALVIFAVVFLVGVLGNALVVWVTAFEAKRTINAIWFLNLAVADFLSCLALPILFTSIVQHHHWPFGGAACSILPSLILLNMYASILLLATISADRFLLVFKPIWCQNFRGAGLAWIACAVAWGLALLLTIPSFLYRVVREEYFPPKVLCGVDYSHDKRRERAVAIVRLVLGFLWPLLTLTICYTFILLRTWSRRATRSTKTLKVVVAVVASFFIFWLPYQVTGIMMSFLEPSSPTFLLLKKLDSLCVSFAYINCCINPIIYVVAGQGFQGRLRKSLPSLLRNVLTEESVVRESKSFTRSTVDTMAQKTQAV
Assay: Determination of the IC50 value in an enzyme release assay (functional assay, antagonistic activity)
Assay type: cell-based
Conditions: antagonistic activity; IC50 group in enzyme release assay, RBL cells expressing human C5aR(CD88); read-out: activity (group)

Compared with `CC(=O)N[C@@H](Cc1ccccc1)C(=O)N[C@@H](CCNC(=N)N)C(=O)N1CCC[C@H]1C(=O)N[C@H](CC1CCCCC1)C(=O)N[C@@H](Cc1csc2ccccc12)C(=O)N[C@@H](Cc1ccccc1)C(N)=O` [Compound 231, Ac-Phe-L22-Pro-cha-Bta-Phe-NH2] (Ac-F[Agb]P[dCha][Bta]F-NH2), `CC(=O)N[C@@H](Cc1ccccc1)C(=O)N[C@@H](CCCN)C(=O)N1C[C@@H](O)C[C@H]1C(=O)N[C@H](CC1CCCCC1)C(=O)N[C@@H](Cc1csc2ccccc12)C(=O)N[C@@H](Cc1ccccc1)C(N)=O` [Compound 235, Ac-Phe-Orn-Chy-cha-Bta-Phe-NH2] (Ac-F[Orn][cisHyp][dCha][Bta]F-NH2) is higher in IC50: 10 to 20 nM for the first, 50 to 200 nM for the second.

`CC(=O)N[C@@H](Cc1ccccc1)C(=O)N[C@H]1CCCNC(=O)[C@H](Cc2ccccc2)NC(=O)[C@H](Cc2cccc(Cl)c2)NC(=O)[C@@H](CCC(C)C)NC(=O)[C@@H]2C[C@@H](O)CN2C1=O` [Compound 178, Ac-Phe-[Orn-Hyp-hle-Mcf-Phe]] (Ac-F[Orn][Hyp][d(hLeu)][Phe(3-Cl)]F; lactam 2-C) and `CCCC[C@@H]1NC(=O)[C@H](Cc2c[nH]c3ccccc23)NC(=O)[C@@H](CCC(C)C)NC(=O)[C@@H]2C[C@@H](O)CN2C(=O)[C@@H](NC(=O)[C@@H](O)Cc2ccccc2)CCCNC1=O` [Compound 392, Ohf-[Orn-Hyp-hle-Trp-Nle]] (H-[PhLac][Orn][Hyp][d(hLeu)]W[Nle]; lactam 2-C) fall in the same range of IC50: 50 to 200 nM for the first, 50 to 200 nM for the second.

Compared with `CC(=O)N[C@H](C(=O)N[C@@H](CCCN)C(=O)N1CCC[C@H]1C(=O)N[C@H](CC1CCCCC1)C(=O)N[C@@H](Cc1csc2ccccc12)C(=O)N[C@@H](Cc1ccccc1)C(N)=O)c1ccccc1` [Compound 126, Ac-Phg-Orn-Pro-cha-Bta-Phe-NH2] (Ac-[Phg][Orn]P[dCha][Bta]F-NH2), `CC(=O)N[C@@H](CCCCN)C(=O)N[C@@H](Cc1ccccc1)C(=O)N[C@@H](CCCN)C(=O)N1CC[C@H]1C(=O)N[C@H](CC1CCCCC1)C(=O)N[C@@H](Cc1csc2ccccc12)C(=O)N[C@@H](Cc1ccccc1)C(N)=O` [Compound 135, Ac-Lys-Phe-Orn-Aze-cha-Bta-Phe-NH2] (Ac-KF[Orn][Aze][dCha][Bta]F-NH2) is lower in IC50: 50 to 200 nM for the first, 10 to 20 nM for the second.

`O=C1NCCC[C@H](NCc2ccccc2)C(=O)N2CCC[C@H]2C(=O)N[C@H](CC2CCCCC2)C(=O)N[C@@H](Cc2c[nH]c3ccccc23)C(=O)N[C@H]1Cc1ccccc1` [Compound 57, Ph-CH2-[Orn-Pro-cha-Trp-Phe]] and `CC(=O)N[C@@H](Cc1ccccc1)C(=O)N[C@H]1CCCNC(=O)[C@H](Cc2ccc(N)cc2)NC(=O)[C@H](Cc2c[nH]c3ccccc23)NC(=O)[C@@H](CC2CCCCC2)NC(=O)[C@@H]2CCCN2C1=O` [Compound 14, Ac-Phe-[Orn-Pro-cha-Trp-Paf]] (Ac-F[Orn]P[dCha]W[Phe(4-NH2)]; lactam 2-C (inferred)) fall in the same range of IC50: 20 to 50 nM for the first, 20 to 50 nM for the second.

First: CCCC[C@@H]1NC(=O)[C@H](Cc2c[nH]c3ccccc23)NC(=O)[C@@H](CCC(C)C)NC(=O)[C@H](CO)NC(=O)[C@@H](NC(=O)[C@@H](N)Cc2ccccc2)CCCNC1=O [Compound 390, H-Phe-[Orn-Ser-hle-Trp-Nle]] (H-F[Orn]S[d(hLeu)]W[Nle]; lactam 2-C)
Second: CCCC[C@@H]1NC(=O)[C@H](Cc2ccc(F)cc2)NC(=O)[C@@H](CCC(C)C)NC(=O)[C@@H]2CCCN2C(=O)[C@@H](NC(=O)[C@H](Cc2ccccc2)NC(=O)CCN)CCCNC1=O [Compound 343, H-Bal-Phe-[Orn-Pro-hle-Pff-Nle]] (H-[βAla]F[Orn]P[d(hLeu)][Phe(4-F)][Nle]; lactam 3-C)
The IC50 of the first is lower: 20 to 50 nM for the first, 50 to 200 nM for the second.

First: CC(=O)N[C@@H](Cc1ccccc1)C(=O)N[C@H]1CCCNC(=O)[C@H](CCC/N=C(/N)N[N+](=O)[O-])NC(=O)[C@H](Cc2c[nH]c3ccccc23)NC(=O)[C@@H](CC2CCCCC2)NC(=O)[C@@H]2CCCN2C1=O [compound 11]
Second: CC(=O)N[C@@H](Cc1ccccc1)C(=O)N[C@@H](CCCNC(=N)N)C(=O)N1CCC[C@H]1C(=O)N[C@H](CCC(C)C)C(=O)N[C@@H](Cc1csc2ccccc12)C(=O)N[C@@H](Cc1ccccc1)C(N)=O [Compound 207, Ac-Phe-Arg-Pro-hle-Bta-Phe-NH2] (Ac-FRP[d(hLeu)][Bta]F-NH2)
The IC50 of the first is higher: 200 to 2000 nM for the first, 50 to 200 nM for the second.

Same assay, conditions: functional assay as used in this application, values in text; read-out: IC50

Molecule `CC(=O)N[C@@H](Cc1ccccc1)C(=O)N[C@@H](CCCCN)C(=O)N[C@@H](C)C(=O)N[C@@H](CC1CCCCC1)C(=O)N[C@@H](C)C(=O)N[C@@H](CC(C)C)C(=O)N[C@H](C)C(=O)N[C@@H](Cc1ccc(O)cc1)C(=O)O` [Ac-Phe-Lys-Ala-Cha-Ala-Leu-ala-Tyr-OH, reference compound] (Ac-FKA[Cha]AL[dA]Y-OH) has an IC50 of 1300 nM.

Same assay, conditions: functional assay of example 11, values in text; read-out: IC50

Molecule `CC(=O)N[C@@H](Cc1ccccc1)C(=O)N[C@H]1CCCNC(=O)[C@H](Cc2ccc(N)cc2)NC(=O)[C@H](Cc2c[nH]c3ccccc23)NC(=O)[C@@H](CC2CCCCC2)NC(=O)[C@@H]2CCCN2C1=O` [Compound 14, Ac-Phe-[Orn-Pro-cha-Trp-Paf]] (Ac-F[Orn]P[dCha]W[Phe(4-NH2)]; lactam 2-C (inferred)) has an IC50 of 30 nM.

Same assay, conditions: functional assay of example 11; noteworthy = IC50 less than 200 nM

In the case of `CC(=O)N[C@@H](Cc1ccccc1)C(=O)N[C@H]1CCCNC(=O)[C@H](Cc2ccc(N)cc2)NC(=O)[C@H](Cc2c[nH]c3ccccc23)NC(=O)[C@@H](CC2CCCCC2)NC(=O)[C@@H]2CCCN2C1=O` [Compound 14, Ac-Phe-[Orn-Pro-cha-Trp-Paf]] (Ac-F[Orn]P[dCha]W[Phe(4-NH2)]; lactam 2-C (inferred)), the “inhibitory activity (in words)” value is reported as “noteworthy inhibitory activity”.
